Experimental data taken from patent US20030198617A1, “Pharmaceutical tryptophan containing dipeptide compositions and methods of use thereof” (priority 1993, published 2003).
Like-named read-outs stand apart in the source and are kept apart here. Marks after values point to notes of the source that are not given here.

Tests used:
Candida albicans = Candida albicans intraperitoneal infection in guinea pigs; format: in vivo
Excerpt: Two groups of guinea pigs were inoculated with Candida albicans by intraperitoneal injection. […] The other group was not treated.
Animals were sacrificed at day 5 and day 10. The peritoneal cavities were examined for signs of inflammation. These signs included number of infectious foci adherent to the omentum, exudate, fibrin deposition, quantitative fungal cultures, and the number of neutrophils, macrophages, and lymphocytes infiltrating the peritoneum.

ARD and influenza = format: in vivo, human
T-cells = experiment: T-cell rosette assay; format: cell-based; conditions: 10^6 cells per ml
[1] = test system: Mycobacterium tuberculosis
[2] = Immune system of guinea pigs after radiation exposure (thymus, lymph node, spleen, blood); format: in vivo
Excerpt: Seventy-two of the animals were irradiated with total radiation dose was 1 Gr. […] The selected doses were optimal in stimulating an immune response to ram erythrocytes. Control irradiated and non-irradiated animals (24 guinea pigs to each group) were given saline solution per an analogous schedule. At 5, 10, and 20 days after irradiation the animals were destroyed (8 guinea pigs from each group). The thymus, spleen, and lymph nodes of each animal were extracted and their weight coefficients computed. The number of karyocytes, T-, B-, and O-lymphocytes in each organ was determined. Also, the functional activity of blood lymphocytes in the leukocyte migration inhibition reaction to Con A was assessed and the content of cation proteins in the neutrophils was determined.

[3] = Radiation injury patients (Example 67); format: in vivo, human; conditions: IM862 100 μg 10 days, 263 patients
Excerpt: A total of 263 patients and 18 control patients sustained exposure to radiation injury. […] A repeated course may be proscribed on the basis of immunological indices, and averages every 4 to 6 months. […] There was an arresting of asthenic syndrome, and an arresting of the somatic pathological exacerbations and reduction of opportunistic infections.

Thymectomized patients = format: in vivo, human; conditions: IM862 100 μg daily 10 days, repeated every 4-6 months, 12 patients
Excerpt: Prior to therapy these individuals had experienced frequent serious infections including upper respiratory infections.

[4] = Radiation immunodeficiency correction two months after irradiation (Chernobyl), blood parameters; format: in vivo, human; conditions: after IM862 therapy
Procedure: These patients were treated for 2 months immediately succeeding exposure to radiation caused from the Chernobyl nuclear accident. As a control, about 19 people exposed to radiation were tested for various blood parameters to establish a baseline.

[5] = Young sportsmen, upper respiratory infections; format: in vivo, human; conditions: IM862 intranasally 1 μg/kg, 3 days, 84 sportsmen
Excerpt: The control group consisted of 44 persons.

corneal epithelium = experiment: Corneal epithelium restoration (experimental data); format: in vivo; conditions: IM862 IM, intranasally or ocular installation
[6] = Immunity and non-specific resistance indices in breast cancer patients after radiotherapy; format: in vivo, human; conditions: after IM862 use
[7] = Resistance to excessive solar radiation in hot marine climates; format: in vivo, human; conditions: IM862 intranasally 100 μg 3 days, 27 persons
Procedure: The control group comprised 24 persons. The administration was intranasally 100 μg for 3 days. […] There was also noted suppression of their immunologic indices.

[8] = following two months of treatment, with chemotherapy
[9] = 20 days after irradiation, IM862 0.01 mg/kg daily for 5 days

## Glu-Trp [IM862]
Candida albicans; after 5 days
  inflammatory changes in the omentum: did not principally differ between the groups
Candida albicans; after 10 days
  quantitative fungal cultures: fewer fungi in the treated animals
Candida albicans; after 10 days, 1 μg/kg per day i.p. for four days
  inflammatory changes in the omentum: less pronounced than in untreated animals
ARD and influenza; 1st month
  Average term of hospitalization: 6.2 days
  Need in hospitalization, %: 27.0%
  Number of temporary disablement cases/100 persons/month: 3.8 cases/100 persons/month
  Number of temporary disablement days/100 persons/month: 24.0 days/100 persons/month
  Sickness rate/100 persons/month: 9.6 /100 persons/month
ARD and influenza; 2nd month
  Average term of hospitalization: 6.2 days
  Need in hospitalization, %: 27.1%
  Number of temporary disablement cases/100 persons/month: 7.3 cases/100 persons/month
  Number of temporary disablement days/100 persons/month: 48.6 days/100 persons/month
  Sickness rate/100 persons/month: 11.3 /100 persons/month
ARD and influenza; 3rd month
  Average term of hospitalization: 6.2 days
  Need in hospitalization, %: 28.3%
  Number of temporary disablement cases/100 persons/month: 3.4 cases/100 persons/month
  Number of temporary disablement days/100 persons/month: 14.3 days/100 persons/month
  Sickness rate/100 persons/month: 9.4 /100 persons/month
ARD and influenza; 4th month
  Average term of hospitalization: 7.0 days
  Need in hospitalization, %: 28.3%
  Number of temporary disablement cases/100 persons/month: 3.6 cases/100 persons/month
  Number of temporary disablement days/100 persons/month: 26.3 days/100 persons/month
  Sickness rate/100 persons/month: 11.0 /100 persons/month
ARD and influenza; IM862 group
  Average term of hospitalization: 6.2 days
  Need in hospitalization: 30.6
  Number of temporary disablement cases/100 persons/month: 4.1 cases/100 persons/month
  Number of temporary disablement days/100 persons/month: 26.5 days/100 persons/month
  Pneumonia rate/100 persons/month: 0.20 /100 persons/month
  Rate of lingering and complicated cases, %: 3.9%
  Sickness rate per 100 persons/month: 9.8 per 100 persons/month
ARD and influenza; IM862 group, lingering and complicated cases
  The same index in-patients, %: 9.8%
ARD and influenza; IM862 vs control
  Index of efficiency: Average term of hospitalization: 1.4
  Index of efficiency: Need in hospitalization: 1.7
  Index of efficiency: Pneumonia rate: 2.5
  Index of efficiency: Rate of lingering and complicated cases: 3.5
  Index of efficiency: Sickness rate: 3.1
  Index of efficiency: The same index in-patients: 2.7
  Index of efficiency: temporary disablement cases: 1.7
  Index of efficiency: temporary disablement days: 2.2
T-cells
  concentration of peak effect for rosette activity: approximately 0.0006 mcg/ml
[1]; after 2 months of observation
  effect on immunological indices: normalizing effect
[1]; after 4-6 months of in-hospital treatment
  positive changes in the lungs, cases out of 37: 35 cases
[1]; [8]
  improvement, number of patients: 27
  significant improvement, number of patients: 9
[2]; 10 and 20 days after irradiation
  cation protein count in the blood neutrophils: normalized at 10 and 20 days after irradiation
[2]; [9]
  Lymph Node: B-lymphocytes %: 3.5 ± 0.6^x %
  Lymph Node: B-lymphocytes ×10^3/mg: 9.2 ± 0.9^x ×10^3/mg
  Lymph Node: Lymphocytes ×10^3/mg: 242.5 ± 31.3^xx ×10^3/mg
  Lymph Node: O-lymphocytes %: 84.4 ± 12.3%
  Lymph Node: O-lymphocytes ×10^3/mg: 204.6 ± 33.4^xx ×10^3/mg
  Lymph Node: T-lymphocytes %: 12.3 ± 0.9%
  Lymph Node: T-lymphocytes ×10^3/mg: 29.9 ± 2.2^xx ×10^3/mg
  Lymph Node: Weight coefficient: 0.31 ± 0.03 g/kg
  Lymph Node: “Active” T-lymphocytes %: 10.3 ± 1.4%
  Lymph Node: “Active” T-lymphocytes ×10^3/mg: 24.9 ± 3.7^xx ×10^3/mg
  Splenic: B-lymphocytes %: 27.1 ± 2.6%
  Splenic: B-lymphocytes ×10^3/mg: 81.6 ± 9.3 ×10^3/mg
  Splenic: Lymphocytes ×10^3/mg: 260.4 ± 32.3^xx ×10^3/mg
  Splenic: O-lymphocytes %: 57.4 ± 6.7%
  Splenic: O-lymphocytes ×10^3/mg: 149.4 ± 15.9^x ×10^3/mg
  Splenic: T-lymphocytes %: 17.4 ± 1.2%
  Splenic: T-lymphocytes ×10^3/mg: 45.4 ± 4.1^xx ×10^3/mg
  Splenic: Weight coefficient: 1.26 ± 0.9 g/kg
  Splenic: “Active” T-lymphocytes %: 11.1 ± 2.0%
  Splenic: “Active” T-lymphocytes ×10^3/mg: 28.9 ± 3.9^xx ×10^3/mg
  Thymic: B-lymphocytes %: 0.9 ± 0.08^xx %
  Thymic: B-lymphocytes ×10^3/mg: 3.7 ± 0.4 ×10^3/mg
  Thymic: Lymphocytes ×10^3/mg: 423.3 ± 40.4^xx ×10^3/mg
  Thymic: O-lymphocytes %: 17.9 ± 0.8%
  Thymic: O-lymphocytes ×10^3/mg: 75.4 ± 8.6^xx ×10^3/mg
  Thymic: T-lymphocytes %: 81.3 ± 9.3%
  Thymic: T-lymphocytes ×10^3/mg: 342.8 ± 30.4^xx ×10^3/mg
  Thymic: Weight coefficient g/kg: 0.81 ± 0.8^xx g/kg
  Thymic: “Active” T-lymphocytes %: 57.6 ± 6.2^xx %
  Thymic: “Active” T-lymphocytes ×10^3/mg: 242.6 ± 26.8^xx ×10^3/mg
[2]; irradiated guinea pigs, 5 and 20 days after irradiation
  percent of leukocyte migration (blood lymphocytes, Con A): normalized this index by 20 days after radiation exposure
[3]
  clinical effect: restoration of normal or near normal immune indices
Thymectomized patients
  clinical effect: normalization of immunologic indices
[4]
  CD2, %: 48.7 ± 1.8 %
  CD2, abs: 1.13 ± 0.08** 10^9/l
  CD2-DR+, %: 30.0 ± 1.2 %
  CD2-DR+, abs: 0.55 ± 0.06* 10^9/l
  CD19, %: 27 ± 4%
  CD19, abs: 0.51 ± 0.10** 10^9/l
  E-RFC, %: 27.4 ± 2.4 %
  IgA: 1.49 ± 0.19 g/L
  IgG: 10.0 ± 1.0 g/L
  IgM: 1.00 ± 0.10 g/L
  LMI with ConA, %: 90 ± 10 %
  Leukocytes, abs: 5.0 ± 1.2** 10^9/l
  Lymphocytes, 2abs: 1.9 ± 0.4* 10^9/l
[5]
  reduction of upper respiratory infections and rates of illness: 4 fold
Corneal epithelium
  corneal epithelium: restoration and regeneration of corneal epithelium
[6]
  B-lymphocyte (Ig^+) (×10^9/l): 0.17 ± 0.02 ×10^9/l
  C3-complement: 0.68 ± 0.04 g/L
  Cation: 1.49 ± 0.12
  LMI with ConA, %: 71 ± 5 %
  Lymphocytes ×10^9/l: 1.72 ± 0.21 ×10^9/l
  OKT4^+/OKT8^+: 1.86 ± 0.17
  Phagocytic index: 3.7 ± 0.2
  T-helpers (OKT4^+): 0.39 ± 0.04
  T-lymphocytes (×10^9/l): 0.92 ± 0.12 ×10^9/l
  T-suppressors (OKT8^+) (×10^9/l): 0.21 ± 0.03 ×10^9/l
  “Active” T-lymphocytes (×10^9/l): 0.52 ± 0.07 ×10^9/l
[6]; delayed-skin hypersensitivity
  DSH to tuberculin (mm): 8.7 ± 0.6 mm
[6]; sensitivity index
  SI to IM862: 1.27 ± 0.14
[7]
  clinical effect: prevented the occurrence of upper respiratory infections
